Like-named read-outs stand apart in the source and are kept apart here.
How the values were obtained:
[1] = Non-compartmental plasma pharmacokinetics after a single oral filgotinib dose; format: in vivo; settings: male, human
[2] = format: in vivo, human; settings: for Tmax / AUC(0-t) / Cmax / concentration at 12 h / concentration at 24 h: oral
[3] = Population pharmacokinetic model; format: in vivo, human; settings: estimate (% RSE)
[4] = test system: JAK1 (IL-6-induced STAT1 phosphorylation); format: cell-based, human; settings: sigmoid Emax model, common to filgotinib and metabolite; estimate (% RSE)
JAK1 = settings: human whole blood; cited from earlier work

With `O=C(Nc1nc2cccc(-c3ccc(CN4CCS(=O)(=O)CC4)cc3)n2n1)C1CC1` [Filgotinib] the AUC(0-inf) ([1]; 10 mg) was 136 ng·h/mL, the Cmax ([1]; 10 mg) was 35.7 ng/mL and the Tmax ([1]; 10 mg) was 1 h. For the same compound, the half-life ([1]; 10 mg) was 6.38 h, the AUC(0-inf) ([1]; 25 mg) was 348 ng·h/mL and the Cmax ([1]; 25 mg) was 83 ng/mL. For the same compound, the Tmax ([1]; 25 mg) was 2.5 h, the half-life ([1]; 25 mg) was 5.72 h and the AUC(0-inf) ([1]; 50 mg) was 771 ng·h/mL. The Cmax ([1]; 50 mg) was 247 ng/mL, the Tmax ([1]; 50 mg) was 2 h and the half-life ([1]; 50 mg) was 5.28 h. The AUC(0-inf) ([1]; 100 mg) was 1740 ng·h/mL, the Cmax ([1]; 100 mg) was 565 ng/mL and the Tmax ([1]; 100 mg) was 2 h. It also gave a half-life ([1]; 100 mg) of 4.91 h, an AUC(0-inf) ([1]; 200 mg) of 4840 ng·h/mL and a Cmax ([1]; 200 mg) of 1160 ng/mL. It also gave a Tmax ([1]; 200 mg) of 3 h, a half-life ([1]; 200 mg) of 5.68 h and a Tmax ([2]; male, human, plasma) of 0.5 to 5 h. The AUC(0-t) ([2]; male, human, plasma, 25 mg) was 346 ng·h/mL, the Cmax ([2]; male, human, plasma, 25 mg) was 144 ng/mL and the Tmax ([2]; male, human, plasma, 25 mg) was 0.5 h. For the same compound, the concentration at 12 h ([2]; male, human, plasma, 25 mg) was 3.75 ng/mL, the AUC(0-t) ([2]; male, human, plasma, 50 mg) was 758 ng·h/mL and the Cmax ([2]; male, human, plasma, 50 mg) was 211 ng/mL. It also gave a Tmax ([2]; male, human, plasma, 50 mg) of 1.5 h, a concentration at 12 h ([2]; male, human, plasma, 50 mg) of 9.52 ng/mL and an AUC(0-t) ([2]; male, human, plasma, 100 mg) of 2380 ng·h/mL. For the same compound, the Cmax ([2]; male, human, plasma, 100 mg) was 556 ng/mL, the Tmax ([2]; male, human, plasma, 100 mg) was 3 h and the concentration at 12 h ([2]; male, human, plasma, 100 mg) was 27.8 ng/mL. For the same compound, the AUC(0-t) ([2]; male, human, plasma, 200 mg) was 4450 ng·h/mL, the Cmax ([2]; male, human, plasma, 200 mg) was 1200 ng/mL and the Tmax ([2]; male, human, plasma, 200 mg) was 2 h. The concentration at 24 h ([2]; male, human, plasma, 200 mg) was 6.04 ng/mL, the AUC(0-t) ([2]; male, human, plasma, 300 mg) was 4400 ng·h/mL and the Cmax ([2]; male, human, plasma, 300 mg) was 1380 ng/mL. For the same compound, the Tmax ([2]; male, human, plasma, 300 mg) was 1.5 h, the concentration at 24 h ([2]; male, human, plasma, 300 mg) was 9.93 ng/mL and the AUC(0-t) ([2]; male, human, plasma, 450 mg) was 10200 ng·h/mL. The Cmax ([2]; male, human, plasma, 450 mg) was 2580 ng/mL, the Tmax ([2]; male, human, plasma, 450 mg) was 2.5 h and the concentration at 24 h ([2]; male, human, plasma, 450 mg) was 17.6 ng/mL. The half-life ([2]; male, human, plasma, po, elimination half-life, average, oral administration) was 6 h, the “accumulation at steady state” value ([2]; repeated dosing) was “no accumulation” and the “time to steady state of plasma concentrations” value ([2]; repeated dosing, regardless of dose and regimen (once or twice daily)) was ≤ 2 days. The “Effect of sex (on V C/F)” value ([3]; covariate effect) was 2.95 (47.7), the “Relative increase in bioavailability in RA patients vs healthy volunteers” value [3] was 0.216 (39.0) and the “ka (first-order absorption rate constant)” value ([3]; log-transformed parameter) was −0.733 (5.64) /h. The FRAC300 mg ([3]; probit-transformed parameter, 300 mg dose) was 0.375 (23.9), the FRAC450 mg ([3]; probit-transformed parameter, 450 mg dose) was 0.363 (38.5) and the “log H (hill factor)” value [4] was 0.680 (27.7). The “selectivity for JAK1- over JAK2-dependent signaling” value (JAK1) was 30 fold.

Reference: PMC4513223 (Clinical Pharmacokinetics, 2015)
